The data set is described as follows: Particle size distribution measurement by laser diffraction. The class given is physicochemical. The settings on record: particle size distribution by volume. An excerpt: The value X90 refers to the 90% value of the volume distribution measured using a laser diffractometer. In other words, for the purposes of the present invention, the X90 value denotes the particle size below which 90% of the quantity of particles is found based on the volume distribution. Analogously the value X50 refers to the 50% value (median) of the volume distribution measured using a laser diffractometer. In other words, for the purposes of the present invention, the X50 value denotes the particle size below which 50% of the quantity of particles is found based on the volume distribution. Analogously the value X10 refers to the 10% value of the volume distribution measured using a laser diffractometer. In other words, for the purposes of the present invention, the X10 value denotes the particle size below which 10% of the quantity of particles is found based on the volume distribution.
Preferably all X90, X50, X10 values hereinbefore and hereinafter are by volume and determined by laser-diffraction method, in particular low angle laser light scattering, i.e. Fraunhofer diffraction. A preferred test is described in the experimental section. The laser diffraction method is sensitive to the volume of a particle and provides a volume-average particle size, which is equivalent to the weight-average particle size if the density is constant.
3. Particle Size Distribution Measurement by Laser Diffraction
Particle size distribution measurement is performed for example via light scattering or laser diffraction technique. To determine the particle size the powder is fed into a laser diffraction spectrometer for example by means of a dispersing unit. The test method is described below in detail:
Equipment: Laser Diffraction Spectrometer Sympatec HELOS Particle Sizer.
Sample Dispersing Unit: Dry disperser RODOS/M
Feed Velocity: 60.00 mm/s
Primary pressure: 2.00 bar
Injector depression: maximize (mbar)2
Reference Measurement: 10 seconds
Trigger Conditions: Start 0.0 seconds after optical concentration 1% valid always
Stop after 5.0 seconds optical concentration 1% or after 30 seconds real time
Optical Concentration: Approximately range 3-12%
Sample Size: Approximately 100 mg
Number of measurements: 2 (duplicate)
The instrument is set up according to the manufacturer's recommendation and using the manufacturer provided software. The sample container is thoroughly mixed and tumbled prior to removing a portion of the sample to ensure that a representative sample is tested. Duplicate samples are prepared by using a spatula to transfer approximately 100 mg of a sample into the ASPIROS glass vials and cap the vials. The capped cials are placed into the feeder.

`OC[C@H]1O[C@@H](c2ccc(Cl)c(Cc3ccc(O[C@H]4CCOC4)cc3)c2)[C@H](O)[C@@H](O)[C@@H]1O` [Active substance Batch 1]: the X10 turned out to be 1.8 μm, the X50 worked out at 18.9 μm and the X90 turned out to be 45.3 μm.
In the case of `OC[C@H]1O[C@@H](c2ccc(Cl)c(Cc3ccc(O[C@H]4CCOC4)cc3)c2)[C@H](O)[C@@H](O)[C@@H]1O` [Active substance Batch 2], the X10 turned out to be 1.7 μm, the X50 worked out at 12.1 μm and the X90 was 25.9 μm.
